Test results as given in US10689339B2, “Pyrrolidine derivatives” (Hoffmann-La Roche Inc., priority 2016, dated 2020).

Target: human Cat S (Homo sapiens (Human), UniProt P25774)
Assay: Cathepsin enzyme inhibition assay (fluorogenic peptide substrate Z-Val-Val-Arg-AMC)
Format: biochemical
Settings: enzyme 1 nM, substrate 20 μM, pH 6.5
Outline: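 Enzymes at 1 nM in 100 mM potassium phosphate pH 6.5, 5 mM EDTA, 0.001% Triton X-100, 5 mM DTT; reaction started with 20 µM Z-Val-Val-Arg-AMC after enzyme–compound mixing.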

Sequence of human Cat S (P25774 115-331): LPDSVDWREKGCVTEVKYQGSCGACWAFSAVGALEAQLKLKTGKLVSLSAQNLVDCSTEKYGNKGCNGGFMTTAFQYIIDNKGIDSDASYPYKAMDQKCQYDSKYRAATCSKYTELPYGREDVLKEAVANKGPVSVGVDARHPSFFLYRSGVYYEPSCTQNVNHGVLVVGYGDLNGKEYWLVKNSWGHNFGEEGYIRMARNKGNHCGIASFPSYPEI

Row | IC50 [pM] | Compound
1 | 558 | Cc1nc(C)n(-c2ccc(S(=O)(=O)[C@@H]3C[C@@H](C(=O)NC4(C#N)CC4)N(C(=O)C4(C(F)(F)F)CC4)C3)c(C(F)(F)F)c2)n1 [Example 27, (2S,4R)-4-[4-(3,5-Dimethyl-[1,2,4]triazol-1-yl)-2-trifluoromethyl-benzenesulfonyl]-1-(1-trifluoromethyl-cyclopropanecarbonyl)-pyrrolidine-2-carboxylic acid (1-cyano-cyclopropyl)-amide]
2 | 560 | N#CC1(NC(=O)[C@@H]2C[C@@H](S(=O)(=O)c3ccc(-n4nccn4)cc3Cl)CN2C(=O)C2(C(F)(F)F)CC2)CC1 [Example 12, (2S,4R)-4-(2-chloro-4-(2H-1,2,3-triazol-2-yl)phenylsulfonyl)-N-(1-cyanocyclopropyl)-1-(1-(trifluoromethyl)cyclopropanecarbonyl)pyrrolidine-2-carboxamide]
